This assay concerns the target TBK1 (Homo sapiens (Human), UniProt Q9UHD2). Description: TBK1 low ATP kinase assay (in vitro assay 1). It counts as biochemical. The following applies: in vitro assay 1, read-out: TBK1 low ATP kinase assay IC50.

Broadly, the IC50 is the concentration needed to halve the response being measured.

TBK1, sequence (Q9UHD2 whole entry): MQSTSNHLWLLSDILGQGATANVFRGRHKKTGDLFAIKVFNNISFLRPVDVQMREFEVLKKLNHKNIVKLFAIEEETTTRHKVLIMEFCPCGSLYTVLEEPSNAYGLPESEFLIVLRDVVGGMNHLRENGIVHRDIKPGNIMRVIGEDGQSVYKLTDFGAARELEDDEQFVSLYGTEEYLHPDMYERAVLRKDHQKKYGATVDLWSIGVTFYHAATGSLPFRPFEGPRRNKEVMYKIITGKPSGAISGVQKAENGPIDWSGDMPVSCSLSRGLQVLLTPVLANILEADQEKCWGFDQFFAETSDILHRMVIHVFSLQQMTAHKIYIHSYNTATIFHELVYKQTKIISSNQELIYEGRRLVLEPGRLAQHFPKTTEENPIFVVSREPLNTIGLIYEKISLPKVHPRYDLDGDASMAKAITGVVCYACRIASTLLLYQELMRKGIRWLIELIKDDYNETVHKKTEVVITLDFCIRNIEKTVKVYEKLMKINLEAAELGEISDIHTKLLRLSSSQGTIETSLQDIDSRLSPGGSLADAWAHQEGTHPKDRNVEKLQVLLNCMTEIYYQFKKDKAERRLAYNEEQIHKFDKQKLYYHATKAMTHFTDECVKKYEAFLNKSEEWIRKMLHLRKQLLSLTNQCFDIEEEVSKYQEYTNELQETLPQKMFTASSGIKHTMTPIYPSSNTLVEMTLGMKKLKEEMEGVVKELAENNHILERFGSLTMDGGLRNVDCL

With `COc1cnccc1-c1ccc2nc(Nc3cc(CN4CCN(C(=O)C5CCC5)CC4)ccn3)[nH]c2c1` [Example 04.04, cyclobutyl{4-[(2-{[6-(3-methoxypyridin-4-yl)-1H-benzimidazol-2-yl]amino}pyridin-4-yl)methyl]piperazin-1-yl}methanone], the 50% inhibitory concentration (IC50) is 0.0224 µM.

For the compound `CN(C)c1ncnc(-c2ccc3nc(Nc4cc(CN5CCN(C(=O)C6CC6)CC5)ccn4)[nH]c3c2)c1Cl` [Example 179.03, (4-{[2-({6-[5-chloro-6-(dimethylamino)pyrimidin-4-yl]-1H-benzimidazol-2-yl}amino)pyridin-4-yl]methyl}piperazin-1-yl)(cyclopropyl)methanone], the IC50 worked out at 1.26 µM.

Turning to `COc1c(-c2ccc3nc(Nc4cc(C(C)N5CCN(C(=O)CC(F)(F)F)CC5)ccn4)[nH]c3c2)ncnc1N1CCC1` (single isomer, unassigned) [Example 111.03, 1-(4-{(1R or 1S)-1-[2-({6-[6-(azetidin-1-yl)-5-methoxypyrimidin-4-yl]-1H-benzimidazol-2-yl}amino)pyridin-4-yl]ethyl}piperazin-1-yl)-3,3,3-trifluoropropan-1-one], the IC50 is 0.0014 µM.

Regarding `CC(c1ccnc(Nc2nc3ccc(-c4cnn(CC5CC5(F)F)c4)c(F)c3[nH]2)c1)N1CCN(C(=O)OC(C)(C)C)CC1` (single isomer, unassigned) [Example 86.01, tert-butyl 4-[(1R or 1S)-1-(2-{[6-(1-{[(1RS)-2,2-difluorocyclopropyl]methyl}-1H-pyrazol-4-yl)-7-fluoro-1H-benzimidazol-2-yl]amino}pyridin-4-yl)ethyl]piperazine-1-carboxylate], the 50% inhibitory concentration (IC50) was determined as 0.011 µM.

Regarding `CC(C)Oc1cc(-c2ccc3nc(Nc4cc(CN5CCN(C(=O)OC(C)(C)C)CC5)ccn4)[nH]c3c2)ncn1` [Example 160.01, tert-butyl 4-{[2-({6-[6-(propan-2-yloxy)pyrimidin-4-yl]-1H-benzimidazol-2-yl}amino)pyridin-4-yl]methyl}piperazine-1-carboxylate], the IC50 is 0.064 µM.

In the case of `CC(c1ccnc(Nc2nc3ccc(-c4cc(Cl)ncn4)cc3[nH]2)c1)N1CCN(C(=O)OC(C)(C)C)CC1` (single isomer, unassigned) [Example 85.01, tert-Butyl 4-[(1R or 1S)-1-(2-{[6-(6-chloropyrimidin-4-yl)-1H-benzimidazol-2-yl]amino}pyridin-4-yl)ethyl]piperazine-1-carboxylate], the half-inhibitory concentration (IC50) is 0.0057 µM.

On to `CCOc1nccc(-c2ccc3nc(Nc4cc(C(C)N5CCN(C(=O)CC(F)(F)F)CC5)ccn4)[nH]c3c2)n1` (single isomer, unassigned) [Example 26.03.01.B, 1-{4-[(1S or 1R)-1-(2-{[6-(2-ethoxypyrimidin-4-yl)-1H-benzimidazol-2-yl]amino}pyridin-4-yl)ethyl]piperazin-1-yl}-3,3,3-trifluoropropan-1-one], for which the half-inhibitory concentration (IC50) is 0.0195 µM.

As for `O=C(C1CC1)N1CCN(Cc2ccnc(Nc3nc4ccc(-c5ccnc(F)c5)cc4[nH]3)c2)CC1` [Example 137.03, cyclopropyl{4-[(2-{[6-(2-fluoropyridin-4-yl)-1H-benzimidazol-2-yl]amino}pyridin-4-yl)methyl]piperazin-1-yl}methanone], the IC50 came out at 0.02 µM.

On to `Cc1noc(-c2ccc3nc(Nc4cc(CN5CCN(c6ccc(F)cc6F)CC5)ccn4)[nH]c3c2)n1` [Example 101.11, N-(4-{[4-(2,4-difluorophenyl)piperazin-1-yl]methyl}pyridin-2-yl)-6-(3-methyl-1,2,4-oxadiazol-5-yl)-1H-benzimidazol-2-amine], for which the IC50 was > 20 µM.

For the compound `Cc1noc(-c2ccc3nc(Nc4cc(CN5CCN(c6cnccn6)CC5)ccn4)[nH]c3c2)n1` [Example 101.13, 6-(3-methyl-1,2,4-oxadiazol-5-yl)-N-(4-{[4-(pyrazin-2-yl)piperazin-1-yl]methyl}pyridin-2-yl)-1H-benzimidazol-2-amine], the IC50 amounted to 0.36 µM.

In the case of `COc1cnnc(-c2ccc3nc(Nc4cc(CN5CCN(C(=O)C6CC6)CC5)ccn4)[nH]c3c2)c1` [Example 47.02, cyclopropyl{4-[(2-{[6-(5-methoxypyridazin-3-yl)-1H-benzimidazol-2-yl]amino}pyridin-4-yl)methyl]piperazin-1-yl}methanone], the IC50 is 0.504 µM.

Regarding `Cc1noc(-c2ccc3nc(Nc4cc(CN5CCN(C(=O)C6CC6)CC5)ccn4)[nH]c3c2C)n1` [Example 54.02, cyclopropyl{4-[(2-{[7-methyl-6-(3-methyl-1,2,4-oxadiazol-5-yl)-1H-benzimidazol-2-yl]amino}pyridin-4-yl)methyl]piperazin-1-yl}methanone], the IC50 turned out to be 0.229 µM.

In the case of `Cc1noc(-c2ccc3nc(Nc4cc(CN5CCN(C(=O)C6CCC6)CC5)ccn4)[nH]c3c2)n1` [Example 16.01.05, cyclobutyl{4-[(2-{[6-(3-methyl-1,2,4-oxadiazol-5-yl)-1H-benzimidazol-2-yl]amino}pyridin-4-yl)methyl]piperazin-1-yl}methanone], the IC50 came out at 0.146 µM.

`O=C(C1CC1)N1CCN(Cc2ccnc(Nc3nc4ccc(-c5cc(OCC6(C(F)(F)F)CC6)ncn5)cc4[nH]3)c2)CC1` [Example 158.03, cyclopropyl{4-[(2-{[6-(6-{[1-(trifluoromethyl)cyclopropyl]methoxy}pyrimidin-4-yl)-1H-benzimidazol-2-yl]amino}pyridin-4-yl)methyl]piperazin-1-yl}methanone]: the IC50 is 0.013 µM.

Regarding `Cc1cc(-c2ccc3nc(Nc4cc(CN5CCN(C(=O)C6CC6)CC5)ccn4)[nH]c3c2)ncn1` [Example 30.01.04, cyclopropyl{4-[(2-{[6-(6-methylpyrimidin-4-yl)-1H-benzimidazol-2-yl]amino}pyridin-4-yl)methyl]piperazin-1-yl}methanone], the IC50 is 0.0123 µM.

As for `COc1c(-c2ccc3nc(Nc4cc(CN5CCN(C(=O)C6CC6)CC5)ccn4)[nH]c3c2)ncnc1N(C)C` [Example 107.01.02, cyclopropyl(4-{[2-({6-[6-(dimethylamino)-5-methoxypyrimidin-4-yl]-1H-benzimidazol-2-yl}amino)pyridin-4-yl]methyl}piperazin-1-yl)methanone], the IC50 turned out to be 0.016 µM.

As for `O=C(CC(F)(F)F)N1CCN(Cc2ccnc(Nc3nc4ccc(-c5nc(C6CC6)no5)cc4[nH]3)c2)CC1` [Example 17.02, 1-{4-[(2-{[6-(3-cyclopropyl-1,2,4-oxadiazol-5-yl)-1H-benzimidazol-2-yl]amino}pyridin-4-yl)methyl]piperazin-1-yl}-3,3,3-trifluoropropan-1-one], the IC50 worked out at 0.0649 µM.

Take `CC(c1ccnc(Nc2nc3ccc(-c4cc(N5CCC5)ncn4)cc3[nH]2)c1)N1CCN(C(=O)OC(C)(C)C)CC1` (single isomer, unassigned) [Example 115.01, tert-butyl 4-{(1R or 1S)-1-[2-({6-[6-(azetidin-1-yl)pyrimidin-4-yl]-1H-benzimidazol-2-yl}amino)pyridin-4-yl]ethyl}piperazine-1-carboxylate]: the IC50 is 0.0014 µM.

As to `CN(C)c1nccnc1-c1ccc2nc(Nc3cc(CN4CCN(C(=O)CC(F)(F)F)CC4)ccn3)[nH]c2c1` [Example 196.02, 1-(4-{[2-({6-[3-(dimethylamino)pyrazin-2-yl]-1H-benzimidazol-2-yl}amino)pyridin-4-yl]methyl}piperazin-1-yl)-3,3,3-trifluoropropan-1-one], the IC50 was 1.83 µM.

These data come from US10894784B2, “Heteroarylbenzimidazole compounds” (BAYER PHARMA AKTIENGESELLSCHAFT, priority 2015, dated 2021).
